Experiments:
Type in all cases: functional
[1] = Induction of TFEB nuclear translocation in human HeLa cells expressing EGFP at 10 uM measured at 3 hrs by fluorescence microscopic analysis
[2] = Induction of TFEB nuclear translocation in human HeLa cells expressing EGFP at 10 uM measured at 6 hrs by fluorescence microscopic analysis
[3] = Induction of TFEB nuclear translocation in human HeLa cells expressing EGFP at 30 uM measured at 3 hrs by fluorescence microscopic analysis
[4] = Induction of TFEB nuclear translocation in human HeLa cells expressing EGFP at 30 uM measured at 6 hrs by fluorescence microscopic analysis

## Brc1ccc2[nH]cc(CCC3c4cc5c(cc4CCN3CC3CCOCC3)OCO5)c2c1 (centres undefined)
[1]
  Activity: 10%
[2]
  Activity: 30%
[3]
  Activity: 85%
[4]
  Activity: 95%

## COCCN1CCc2cc3c(cc2C1CCc1c[nH]c2ccccc12)OCO3 (centres undefined)
[1]
  Activity: 30%
[2]
  Activity: 30%
[3]
  Activity: 70%
[4]
  Activity: 80%

## COc1cc2c(cc1OC)C(CCc1c[nH]c3ccc(F)cc13)N(CC1CCOCC1)CC2 (centres undefined)
[1]
  Activity: 22%
[2]
  Activity: 47%
[3]
  Activity: 88%
[4]
  Activity: 95%

## COc1ccc2[nH]cc(CC[C@@H]3c4cc(OC)c(OC)cc4CCN3CC3CCOCC3)c2c1
[1]
  Activity: 23%
[2]
  Activity: 37%
[3]
  Activity: 74%
[4]
  Activity: 80%

## CCN1CCc2cc3c(cc2C1CCc1c[nH]c2ccccc12)OCO3 (centres undefined)
[1]
  Activity: 9%
[2]
  Activity: 22%
[3]
  Activity: 65%
[4]
  Activity: 84%

## Clc1ccc2[nH]cc(CCC3c4cc5c(cc4CCN3CC3CCOCC3)OCO5)c2c1 (centres undefined)
[1]
  Activity: 15%
[2]
  Activity: 20%
[3]
  Activity: 83%
[4]
  Activity: 92%

## OCn1cc(CCC2c3cc4c(cc3CCN2CC2CCOCC2)OCO4)c2ccccc21 (centres undefined)
[1]
  Activity: 5%
[2]
  Activity: 5%
[3]
  Activity: 8%
[4]
  Activity: 8%

## c1ccc2c(c1)ccn2CCC1c2cc3c(cc2CCN1CC1CCOCC1)OCO3 (centres undefined)
[1]
  Activity: 5%
[2]
  Activity: 5%
[3]
  Activity: 8%
[4]
  Activity: 5%

## c1ccc2c(CCC3c4cc5c(cc4CCN3CC3CCOCC3)OCO5)c[nH]c2c1 (centres undefined)
[1]
  Activity: 47%
[2]
  Activity: 67%
[3]
  Activity: 86%
[4]
  Activity: 93%

## O=CN1CCc2cc3c(cc2C1CCc1c[nH]c2ccccc12)OCO3 (centres undefined)
[1]
  Activity: 6%
[2]
  Activity: 5%
[3]
  Activity: 6%
[4]
  Activity: 4%

## c1ccc2c(CCC3c4cc5c(cc4CCN3CC3CCCCC3)OCO5)c[nH]c2c1 (centres undefined)
[1]
  Activity: 7%
[2]
  Activity: 8%
[3]
  Activity: 11%
[4]
  Activity: 42%

## COc1ccc2[nH]cc(CC[C@H]3c4cc(OC)c(OC)cc4CCN3CC3CCOCC3)c2c1
[1]
  Activity: 44%
[2]
  Activity: 61%
[3]
  Activity: 85%
[4]
  Activity: 91%

## c1ccc2c(CCC3c4cc5c(cc4CCN3CC3CCOCC3)OCO5)csc2c1 (centres undefined)
[1]
  Activity: 5%
[2]
  Activity: 5%
[3]
  Activity: 15%
[4]
  Activity: 20%

## c1ccc(CN2CCc3cc4c(cc3C2CCc2c[nH]c3ccccc23)OCO4)cc1 (centres undefined)
[1]
  Activity: 10%
[2]
  Activity: 10%
[3]
  Activity: 10%
[4]
  Activity: 10%

## CC(=O)N1CCc2cc3c(cc2C1CCc1c[nH]c2ccccc12)OCO3 (centres undefined)
[1]
  Activity: 6%
[2]
  Activity: 7%
[3]
  Activity: 8%
[4]
  Activity: 10%

## Cc1ccc2[nH]cc(CCC3c4cc5c(cc4CCN3CC3CCOCC3)OCO5)c2c1 (centres undefined)
[1]
  Activity: 20%
[2]
  Activity: 30%
[3]
  Activity: 83%
[4]
  Activity: 85%

## COc1ccc2[nH]cc(CCC3c4cc5c(cc4CCN3CC3CCOCC3)OCO5)c2c1 (centres undefined)
[1]
  Activity: 74%
[2]
  Activity: 76%
[3]
  Activity: 88%
[4]
  Activity: 98%

## Cc1ccc2[nH]cc(CCC3NCCc4cc5c(cc43)OCO5)c2c1 (centres undefined)
[1]
  Activity: 10%
[2]
  Activity: 10%
[3]
  Activity: 45%
[4]
  Activity: 60%

## COc1cc2c(cc1OC)C(CCc1c[nH]c3ccc(Cl)cc13)N(CC1CCOCC1)CC2 (centres undefined)
[1]
  Activity: 27%
[2]
  Activity: 37%
[3]
  Activity: 84%
[4]
  Activity: 90%

## c1cnc2[nH]cc(CCC3c4cc5c(cc4CCN3CC3CCOCC3)OCO5)c2c1 (centres undefined)
[1]
  Activity: 10%
[2]
  Activity: 10%
[3]
  Activity: 64%
[4]
  Activity: 64%

## Fc1ccc2[nH]cc(CC[C@@H]3c4cc5c(cc4CCN3CC3CCOCC3)OCO5)c2c1
[1]
  Activity: 29%
[2]
  Activity: 33%
[3]
  Activity: 70%
[4]
  Activity: 82%

Source: ChEMBL document CHEMBL5506074, “Discovery and Optimization of Tetrahydroisoquinoline Derivatives To Enhance Lysosome Biogenesis as Preclinical Candidates for the Treatment of Alzheimer's Disease” (J Med Chem, 2024)
